From patent publication US11780839B2, “Compounds for treating Huntington's disease” (PTC THERAPEUTICS, INC., priority 2018, dated 2023)
pIC50: −log10 of the molar value.

System: Endogenous Huntingtin Protein
Assay: Endogenous Huntingtin Protein Assay (ELISA-based Meso Scale Discovery electrochemiluminescence)
Format: cell-based
Conditions: MSD electrochemiluminescence, Table 1
Procedure, shortened: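 Huntingtin was captured overnight at 4 °C on plates coated with 1 μg/mL MW1 (polyQ-expanded) or MAB2166 antibody and BSA-blocked. Detection used a rabbit monoclonal and then a SULFO-TAG goat anti-rabbit antibody (0.25 μg/mL, 1 h each, room temperature). Signal was read by electrochemiluminescence.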

Structure (SMILES) | pIC50
[2H]C([2H])([2H])n1cc(-c2ccc(-c3cnc(NC4CC(C)(C)NC(C)(C)C4)nn3)c(O)c2)cn1 [Cpd 373, 5-[1-(^2H3)methyl-1H-pyrazol-4-yl]-2-{3-[(2,2,6,6-tetramethylpiperidin-4-yl)amino]-1,2,4-triazin-6-yl}phenol] | ≥ 7.00
CC(C)(C)NC1CCN(c2cnc(-c3ccc(-c4c[nH]nc4F)cc3O)nn2)C1 (centres unmarked) [Cpd 374, 2-{6-[3-(tert-butylamino)pyrrolidin-1-yl]-1,2,4-triazin-3-yl}-5-(3-fluoro-1H-pyrazol-4-yl)phenol] | ≥ 7.00
Cc1n[nH]cc1-c1ccc(-c2cnc(N3CCC(NC(C)(C)C)C3)nn2)c(O)c1 (centres unmarked) [Cpd 375, 2-{3-[3-(tert-butylamino)pyrrolidin-1-yl]-1,2,4-triazin-6-yl}-5-(3-methyl-1H-pyrazol-4-yl)phenol] | ≥ 7.00
COc1cc(-c2cn[nH]c2)cc(O)c1-c1cnc(N2CCC(NC(C)(C)C)C2)nn1 (centres unmarked) [Cpd 376, 2-{3-[3-(tert-butylamino)pyrrolidin-1-yl]-1,2,4-triazin-6-yl}-3-methoxy-5-(1H-pyrazol-4-yl)phenol] | ≥ 7.00
[2H]C([2H])([2H])n1cc(-c2ccc(-c3cnc(N[C@H]4CC(C)(C)NC(C)(C)[C@H]4F)nn3)c(O)c2)cn1 [Cpd 377, 2-(3-{[(3S,4S)-3-fluoro-2,2,6,6-tetramethylpiperidin-4-yl]amino}-1,2,4-triazin-6-yl)-5-[1-(^2H3)methyl-1H-pyrazol-4-yl]phenol] | ≥ 7.00
CC(C)(C)N[C@H]1CCN(c2ncc(-c3ccc(-c4c[nH]nc4F)cc3O)nn2)C1 [Cpd 378, 2-{3-[(3S)-3-(tert-butylamino)pyrrolidin-1-yl]-1,2,4-triazin-6-yl}-5-(3-fluoro-1H-pyrazol-4-yl)phenol] | ≥ 7.00
CC(C)(C)N[C@@H]1CCN(c2ncc(-c3ccc(-c4c[nH]nc4F)cc3O)nn2)C1 [Cpd 379, 2-{3-[(3R)-3-(tert-butylamino)pyrrolidin-1-yl]-1,2,4-triazin-6-yl}-5-(3-fluoro-1H-pyrazol-4-yl)phenol] | ≥ 7.00
CNc1cc(-c2ccc(-c3cnc(N4CCC(NC)C4)nn3)c(O)c2)ncn1 (centres unmarked) [Cpd 380, 5-[6-(methylamino)pyrimidin-4-yl]-2-{3-[3-(methylamino)pyrrolidin-1-yl]-1,2,4-triazin-6-yl}phenol] | ≥ 7.00
CN(c1ncc(-c2ccc(-n3ncc4ccncc43)cc2O)nn1)C1CC(C)(C)NC(C)(C)C1 [Cpd 381, 2-{3-[methyl(2,2,6,6-tetramethylpiperidin-4-yl)amino]-1,2,4-triazin-6-yl}-5-(1H-pyrazolo[3,4-c]pyridin-1-yl)phenol] | ≥ 7.00
CN(c1cnc(-c2ccc(-c3ccncc3)cc2O)nn1)C1CC(C)(C)NC(C)(C)C1 [Cpd 382, 2-{6-[methyl(2,2,6,6-tetramethylpiperidin-4-yl)amino]-1,2,4-triazin-3-yl}-5-(pyridin-4-yl)phenol] | ≥ 7.00
CN(c1ncc(-c2ccc(-c3cc(F)c4[nH]ncc4c3)cc2O)nn1)C1CC(C)(C)NC(C)(C)C1 [Cpd 383, 5-(7-fluoro-1H-indazol-5-yl)-2-{3-[methyl(2,2,6,6-tetramethylpiperidin-4-yl)amino]-1,2,4-triazin-6-yl}phenol] | ≥ 7.00
CN(c1cnc(-c2ccc(-c3cccnc3)cc2O)nn1)C1CC(C)(C)NC(C)(C)C1 [Cpd 384, 2-{6-[methyl(2,2,6,6-tetramethylpiperidin-4-yl)amino]-1,2,4-triazin-3-yl}-5-(pyridin-3-yl)phenol] | ≥ 7.00
C[C@@H]1CN(c2ncc(-c3ccc(-c4ccc5nccn5n4)cc3O)nn2)C[C@H](C)N1 [Cpd 385, 2-{3-[(3R,5S)-3,5-dimethylpiperazin-1-yl]-1,2,4-triazin-6-yl}-5-(imidazo[1,2-b]pyridazin-6-yl)phenol] | ≥ 7.00
Oc1cc(-c2cn[nH]c2)ccc1-c1cnc(N2CCC(CNC3CCCC3)C2)nn1 (centres unmarked) [Cpd 386, 2-(3-{3-[(cyclopentylamino)methyl]pyrrolidin-1-yl}-1,2,4-triazin-6-yl)-5-(1H-pyrazol-4-yl)phenol] | 6.30 to 7.00
Oc1cc(-c2cn[nH]c2)ccc1-c1cnc(N2CCC(C3CCCN3)C2)nn1 (centres unmarked) [Cpd 387, 2-[3-([2,3’-bipyrrolidin]-l’-yl)-1,2,4-triazin-6-yl]-5-(1H-pyrazol-4-yl)phenol] | ≥ 7.00
Oc1cc(-c2cn[nH]c2)ccc1-c1cnc(N2CCC(CNCc3ccccn3)C2)nn1 (centres unmarked) [Cpd 388, 5-(1H-pyrazol-4-yl)-2-{3-[-({[(pyridin-2-yl)methyl]amino}methyl)pyrrolidin-1-yl]-1,2,4-triazin-6-yl}phenol] | ≥ 7.00
Cn1cc(-c2ccc(-c3cnc(N4CCC(C)(N)C4)nn3)c(O)c2)cn1 (centres unmarked) [Cpd 389, 2-[3-(3-amino-3-methylpyrrolidin-1-yl)-1,2,4-triazin-6-yl]-5-(1-methyl-1H-pyrazol-4-yl)phenol] | ≥ 7.00
CC(C)(C)NCC1CCN(c2ncc(-c3ccc(-c4cn[nH]c4)cc3O)nn2)C1 (centres unmarked) [Cpd 390, 2-(3-{3-[(tert-butylamino)methyl]pyrrolidin-1-yl}-1,2,4-triazin-6-yl)-5-(1H-pyrazol-4-yl)phenol] | ≥ 7.00
CC1(NCC2CCN(c3ncc(-c4ccc(-c5cn[nH]c5)cc4O)nn3)C2)CCOCC1 (centres unmarked) [Cpd 391, 2-[3-(3-{[(4-methyloxan-4-yl)amino]methyl}pyrrolidin-1-yl)-1,2,4-triazin-6-yl]-5-(1H-pyrazol-4-yl)phenol] | ≥ 7.00
Oc1cc(-c2cn[nH]c2)ccc1-c1cnc(N2CCC(CNC3CC3)C2)nn1 (centres unmarked) [Cpd 392, 2-(3-{3-[(cyclopropylamino)methyl]pyrrolidin-1-yl}-1,2,4-triazin-6-yl)-5-(1H-pyrazol-4-yl)phenol] | ≥ 7.00
CN(c1cnc(-c2ccc(-c3ccccn3)cc2O)nn1)C1CC(C)(C)NC(C)(C)C1 [Cpd 393, 2-{6-[methyl(2,2,6,6-tetramethylpiperidin-4-yl)amino]-1,2,4-triazin-3-yl}-5-(pyridin-2-yl)phenol] | ≥ 7.00
CN(c1cnc(-c2ccc(-c3ccc4c(cnn4C)n3)cc2O)nn1)C1CC(C)(C)NC(C)(C)C1 [Cpd 394, 5-(1-methyl-1H-pyrazolo[4,3-b]pyridin-5-yl)-2-{6-[methyl(2,2,6,6-tetramethylpiperidin-4-yl)amino]-1,2,4-triazin-3-yl}phenol] | ≥ 7.00
Oc1cc(-c2cn[nH]c2)ccc1-c1cnc(N2CCC(CNC3CCOC3)C2)nn1 (centres unmarked) [Cpd 395, 2-[3-(3-{[(oxolan-3-yl)amino]methyl}pyrrolidin-1-yl)-1,2,4-triazin-6-yl]-5-(1H-pyrazol-4-yl)phenol] | ≥ 7.00
CC1(C)CC(Nc2cnc(-c3ccc(-c4cn[nH]c4)cc3O)nn2)CC(C)(C)N1 [Cpd 396, 5-(1H-pyrazol-4-yl)-2-{6-[(2,2,6,6-tetramethylpiperidin-4-yl)amino]-1,2,4-triazin-3-yl}phenol] | ≥ 7.00
Oc1cc(-c2cn[nH]c2)ccc1-c1cnc(N2CC[C@@H](CNC3CCOCC3)C2)nn1 [Cpd 397, 2-{3-[(3S)-3-{[(oxan-4-yl)amino]methyl}pyrrolidin-1-yl]-1,2,4-triazin-6-yl}-5-(1H-pyrazol-4-yl)phenol] | ≥ 7.00
Oc1cc(-c2cn[nH]c2)ccc1-c1cnc(N2CC[C@H](CNC3CCOCC3)C2)nn1 [Cpd 398, 2-{3-[(3R)-3-{[(oxan-4-yl)amino]methyl}pyrrolidin-1-yl]-1,2,4-triazin-6-yl}-5-(1H-pyrazol-4-yl)phenol] | ≥ 7.00
